Strand notation (5' to 3'): a small letter for the sugar, then the base; units joined by * are phosphorothioate-linked, units joined directly phosphodiester-linked; [ ] holds rarer units or linkages, { } end groups; capitals alone tell only the bases. d = 2'-deoxy (DNA)
Key:
[1] = test system: internally 32P-labelled HBV precore-core RNA (epsilon region); assay: RNase H cleavage of HBV precore-core RNA with noncontiguous oligonucleotides targeted to the epsilon region; type: biochemical, hepatitis B virus; conditions: for total RNA cleavage by RNase H: 10+10 and 12+12 noncontiguous oligonucleotides versus mixtures of arms, FIGS. 5A, 6A; for double cleavage (twice cleaved product) by RNase H on both sides of the epsilon stem: FIGS. 5B, 6B
Protocol: To determine whether an oligonucleotide of the invention is capable of successfully hybridizing to its target, an RNase H assay was performed (Frank et al. (1993) Proc. Int. Conf. Nucleic Acid Med. Applns. 1:4.14(abstract)). This assay is useful when a region of at least four contiguous nucleotides of the oligonucleotide is DNA and the target is RNA. Hybridization of the DNA portion of the oligonucleotide to the RNA target is identified by cleavage at that site by RNase H.
Noncontiguous oligonucleotides targeted to the HBV epsilon region have also been prepared and tested. The epsilon region is characterized by an RNA stem-loop structure consisting primarily of double-stranded RNA with a single-stranded bulge and loop of 6 bases each (FIG. 3). […] The ability of RNase H to cleave an RNA in this manner inflicts greater damage on the RNA than normal antisense oligodeoxynucleotides, while allowing the targeting of a biologically important region that is otherwise difficult to target due to its double-stranded nature.
Based on this information, several oligodeoxynucleotide phosphorothioates were prepared to test the hypothesis that hybridization by mode B is preferred when spanning the base of an RNA stem. 20mer and 24mer noncontiguous oligonucleotides (Table 2) were prepared as well as the 10mers and 12mers corresponding to the “arms” of the noncontiguous sequences.
If a single oligodeoxynucleotide were able to bind across the base of epsilon to sequences on either side of the stem, RNase H might cleave both sites and effectively cut out the epsilon stem-loop from the RNA. […] The 12+12 noncontiguous phosphorothioates show the same ability to bind across the base of the RNA stem. […] Double cleavage of the transcript in the presence of the mixture of 12mer arms (HBV71+HBV72) was much slower (FIG. 6B).
When oligonucleotides hybridizing via mode B were lengthened to allow strand invasion of the RNA stem, disruption of the stem-loop structure occurred. Oligonucleotides HBV89 (SEQ ID NO:39), HBV90 (SEQ ID NO:40), and HBV91 (SEQ ID NO:41) bind across the base of epsilon via mode B and strand invade on either the 5 side (HBV89) or the 3′ side (HBV90 and HBV91) of the RNA stem. HBV89M is an extension of HBV64M with ten 2′-O-methyl RNA residues invading the RNA stem on the 5′-side. Addition of these strand invading nucleotides increased the cleavage efficiency from 23% to 32% at 100 nM oligonucleotide.
Uniformally ^32P-labelled RNA was prepared from 1 μg linearized plasmid using the Ambion MEGAscript In Vitro Transcription Kit (Ambion, Inc., Austin, Tex.) according to the manufacturers' instructions, using [α-^32p] CTP as the radioactive label. The RNA was treated with RNase-free DNase I (Ambion, Inc., Austin, Tex.), extracted with phenol:chloroform: isoamyl alcohol (25:24:1) and purified from nucleotides and nucleosides on a G-50 Sephadex spin column (Boehringer-Mannheim, Indianapolis, Ind., or Pharmacia, Uppsala, Sweden).
In 9 μl 1× RNase H buffer (40 mM Tris-HCl pH 7.4, 4 mM MgCl2, 1 mM DTT), 20–100 nM labelled RNA and 100 nM oligonucleotides were preincubated for 15 min at 37° C. 1 μl RNase H (1 U/μl) was added, and the reaction was incubated at 37° C. for 10 min. The reactions were quenched and analyzed as described above.
Quantitation of the cleavage products was performed using software supplied with the Phosphorimager (Molecular Dynamics, Sunnyvale, Calif., or Bio-Rad Laboratories, Hercules, Calif.). “Counts” were determined by drawing a box around the band of interest and subtracting the background determined with a box drawn nearby. Counts in a product band were compared to total counts in the lane above that band to determine % cleavage.

[2] = test system: HBV genomes in the supernatants from HepG2.2.15 cells; assay: Kinetic PCR HBV anti-viral assay on supernatants from HepG2.2.15 cells; type: cell-based, hepatitis B virus; conditions: copy number of HBV genomes in HepG2.2.15 supernatants, day 10
Protocol: In addition to Southern hybridizations, kinetic PCR was performed to assay the supernatants from the HepG2.2.15 cells. This procedure was carried out as described by Higuchi et al. (Biotechnol. (1993) 11:1026–1030). All PCRs were carried out with two sets of external controls which consisted of a dilution series of a known concentration of plasmid DNA that contained the HBV core gene amplified with the same primer set. These controls generated a standard curve that was used to calculate the copy number of HBV genomes in the supernatants from cells exposed to the various dilutions of compound.
The anti-viral assay was performed using HepG 2.2.15 cells (Sells et al. ([…]) Proc. Natl. Acad. Sci. (USA) 84:1005–1009) seeded at a density of 1×10^5 per well in 24 well plates. The cells were grown to confluence and allowed to stabilize for 2–3 days in RPMI media (supplemented with 10% fetal calf serum (FCS), 2 mM glutamine and penstrep (Life Technologies Ltd., Paisley, Scotland) prior to the addition of the oligonucleotide (defined as day 0). Six dilutions (10, 5, 1, 0.5, 0.1, and 0 μM) were set up in duplicate for each of the antisense oligonucleotides. In each assay run, the nucleoside analog, β-L-(2R,5S)-1,3 oxathiolanyl cytosine (3TC) (Glaxo, Greenford, U.K.) was included as positive control at 0.5, 0.1, 0.075, 0.05, and 0.01 and 0 μM in duplicate. Oligonucleotide was added to 1 ml of RPMI media (supplemented with 3% FCS, 2 mM glutamine and penstrep) at each of the indicated dilutions. At days 2, 4 and 7, the old media was removed and replaced with fresh media containing compound. At day 10, the supernatants were harvested, clarified by low speed centrifugation, prior to the addition of Triton X100 (Sigma, St. Louis, Mo.) and tri-n-butyl phosphate to give a final concentration of 1%. The samples were then heated to 70° C. for 20 minutes to disrupt the viral particles.
Following this treatment, the viral particles were subject to analysis by kinetic PCR. The primers RJ407 (SEQ ID NO:51) and RJ431 (SEQ ID NO:52) were used to detect a 205 bp fragment of the core gene. Kinetic PCR was performed essentially as described by Higuchi et al. (Biotechnol. (1993) 11:1026–1030). Briefly, the PCR reactions were set up under standard conditions except that ethidium bromide was included at a concentration of 4 μg/ml. […] A kinetic PCR analysis was performed by plotting the average intensity of fluorescence from each PCR sample after each annealing/extension cycle against the cycle number. The original template concentration can be calculated by utilizing a standard fluorescence curve generated by templates of known concentration.

[3] = test system: HBVpol RNA; assay: In vitro translation assay (wheat germ translation system); type: biochemical, hepatitis B virus; conditions: FIG. 8
Protocol: The oligonucleotides of the invention can be assayed for antisense inhibitory activity with a number of different assays. For example, an in vitro translation assay can be used to test antisense activity in which an antisense oligonucleotide can inhibit synthesis of a protein product encoded by the targeted mRNA. In such an assay, oligonucleotides targeted to the polymerase gene were tested against both target and an unrelated control RNA in the wheat germ translation system. […] Results are represented graphically in FIG. 7.
This assay was also used to compare the activity of mismatched oligonucleotides to the activity of the parent oligonucleotide. Four such oligonucleotides, all derivatives of HBVpol-2 (HBVpol-A, SEQ ID NO:46; HBVpol-B, SEQ ID NO:47; HBVpol-C, SEQ ID NO:48, HBVpol-D, SEQ ID NO:49) (Table 1) were synthesized and tested in the assay.
The 5′ end of the polymerase gene (pol) open reading frame, nt 2292–2942, was amplified by the PCR from the full length HBV clone pCH3/3097 (Bartenschlager et al. (1992) Nucleic Acids Res. 20:195–202). The 5′ amplification primer AS10 (SEQ ID NO:55) encoded an EcoRI site. The 3′ amplification primer AS11 (SEQ ID NO:56) both encoded a PstI site and introduced a stop codon in the place of a leucine codon at position 2942–2944. The PCR product was digested with EcoRI and PstI (Promega, Madison, Wis.) and inserted into similarly digested plasmid vector pGEM-3z (Promega, Madison, Wis.). The resulting recombinant plasmid was recut with PstI and an oligonucleot-ide dA:dT(30) linker was introduced.
B. In vitro Transcription of RNA pHBVpol and a second plasmid pHSVProt were linearized with HindIII (Promega, Madison, Wis.), RNA was in vitro transcribed from each construct using T7 Cap-Scribe reagents (Boehringer-Mannheim, Indianapolis, Ind.) employed as per the manufacturer's instructions. The quantity and quality of the RNA's was assessed on a 2% agarose/formaldehyde gel. The control HSVProt RNA was arbitrarily diluted 10 fold to 200 ng/μl and stored in 20 μl aliquots at −80° C.
In this series of experiments only phosphodiester (PO) oligonucleotides were used. 5 μM, 2.5 μM, and 1.25 μM stocks of each of HBVpol-1, HBVpol-2, HBVpol-3, and randomer were made up and stored frozen. Reactions were set up using 100 ng HBVpol and 200 ng pHSVprot. The volume of water in the translation master mix was reduced to allow the addition of 1 μl of each dilution of each oligonucleotide to the reactions whilst maintaining the final volume at 12 μl. This corresponds to final oligonucleotide concentrations of approximately 400 nM, 200 nM, and 100 nM.

AGAGATGATTTAAGGGTCGATGTCCATGCC (chemistry not given here) [HBV90]
strand invasion of the RNA stem evidenced by RNase H cleavage within the stem near the core initiator [1]: able to strand invade

AGGCAGAGGTTAAGGGTCGA (antisense dA*dG*dG*dC*dA*dG*dA*dG*dG*dT*dT*dA*dA*dG*dG*dG*dT*dC*dG*dA) [HBV66]
total RNA cleavage by RNase H [1]: activate RNase H cleavage of the transcript more effectively than the mixture of 10mer arms | double cleavage (twice cleaved product) by RNase H on both sides of the epsilon stem [1]: greater after 10 minutes than in the presence of HBV68

AGGCAGAGGTTAAGGGTCGATGTCCATGCC (phosphorothioate, further chemistry not given here) [HBV91]
strand invasion of the RNA stem evidenced by RNase H cleavage within the stem near the core initiator [1]: able to strand invade

GACAUGAACAAGAGAUGAUUTAAGGGTCGA (RNA letters in 5' part, chemistry not given here) [HBV89M]
cleavage efficiency ([1]; 100 nM oligonucleotide, RNase H): 32%

GAGGTGAAAAAGTTGCATGG (antisense dG*dA*dG*dG*dT*dG*dA*dA*dA*dA*dA*dG*dT*dT*dG*dC*dA*dT*dG*dG) [HBV48]
IC50 [2]: 0.7 µM

GATAGGGGCATTTGGTGcTC (antisense dG*dA*dT*dA*dG*dG*dG*dG*dC*dA*dT*dT*dT*dG*dG*dT*dG*dC*dT*dC) [HBVpol-C, single mismatch derivative of HBVpol-2]
antisense activity of mismatched oligonucleotides compared to parent HBVpol-2 [3]: varying degrees of reduction in activity

GATAGGGGCcTTTGGTGGTC (antisense dG*dA*dT*dA*dG*dG*dG*dG*dC*dC*dT*dT*dT*dG*dG*dT*dG*dG*dT*dC) [HBVpol-B, single mismatch derivative of HBVpol-2]
antisense activity of mismatched oligonucleotides compared to parent HBVpol-2 [3]: varying degrees of reduction in activity

GAcAGGGGCATTTGGTGGTC (antisense dG*dA*dC*dA*dG*dG*dG*dG*dC*dA*dT*dT*dT*dG*dG*dT*dG*dG*dT*dC) [HBVpol-A, single mismatch derivative of HBVpol-2]
antisense activity of mismatched oligonucleotides compared to parent HBVpol-2 [3]: varying degrees of reduction in activity

GAcAGGGGCcTTTGGTGcTC (antisense dG*dA*dC*dA*dG*dG*dG*dG*dC*dC*dT*dT*dT*dG*dG*dT*dG*dC*dT*dC) [HBVpol-D, three mismatches, derivative of HBVpol-2, reference compound]
antisense activity of mismatched oligonucleotides compared to parent HBVpol-2 [3]: abrogated antisense activity

TAAGGGTCGAAGGCAGAGGT (antisense dT*dA*dA*dG*dG*dG*dT*dC*dG*dA*dA*dG*dG*dC*dA*dG*dA*dG*dG*dT) [HBV68]
total RNA cleavage by RNase H [1]: activate RNase H cleavage of the transcript more effectively than the mixture of 10mer arms

TATAAGGGTCGAAGGCAGAGGTGA (antisense dT*dA*dT*dA*dA*dG*dG*dG*dT*dC*dG*dA*dA*dG*dG*dC*dA*dG*dA*dG*dG*dT*dG*dA) [HBV79]
total RNA cleavage by RNase H [1]: equal | double cleavage (twice cleaved product) by RNase H on both sides of the epsilon stem [1]: efficiently activate RNase H cleavage on both sides of the stem after only 1.5 minutes

TCGATGTCCATGCCCCAAAG (phosphorothioate, further chemistry not given here) [HBV4]
IC50 [2]: 1.2 µM
